Laboratory results as given in patent US10100049B2, “JAK kinase inhibitor compounds for treatment of respiratory disease” (THERAVANCE BIOPHARMA R&D IP, LLC, priority 2015, dated 2018).

Assay: Dynamic moisture sorption assessment
Format: physicochemical
Experimental: Dynamic moisture sorption (DMS) measurement was performed using a VTI atmospheric microbalance, SGA-100 system (VTI Corp., Hialeah, Fla. 33016). A weighed sample was used and the humidity was lowest possible value (close to 0% RH) at the start of the analysis. The DMS analysis consisted of an initial drying step (˜0% RH) for 120 minutes, followed by two cycles of sorption and desorption with a scan rate of 5% RH/step over the humidity range of 5% RH to 90% RH. The DMS run was performed isothermally at 25° C.

For `CCc1cc(O)c(F)cc1-c1ccc2c(-c3nc4c([nH]3)CCN(C3CCN(C)CC3)C4)n[nH]c2c1` [crystalline hydrate, Crystalline hydrate of 5-ethyl-2-fluoro-4-(3-(5-(1-methylpiperidin-4-yl)-4,5,6,7-tetrahydro-1H-imidazo[4,5-c]pyridin-2-yl)-1H-indazol-6-yl)phenol], the “weight gain (moisture sorption)” value (5% to 90% relative humidity, about 25° C.) was “less than 0.12%” and the hygroscopicity (two cycles of sorption and desorption) was “non-hygroscopic”.
